Data: patent US20220259180A1, “BROAD SPECTRUM ANTIVIRAL COMPOUNDS TARGETING THE SKI COMPLEX” (priority 2019, published 2022)
pIC50: −log10 of the molar value. “Also recorded” adds a separate entry of the source. Like-named read-outs stand apart in the source and are kept apart here.

What was measured:
[1] = tested on: Influenza virus; type: cell-based, influenza A virus NL09 strain; details: for first experiment PFU/ml: 0.1% DMSO control 100000; for Flu titer (pfu/ml) / Antiviral activity against Influenza virus: A549 cells; for Flu titer (pfu/ml): plaque assay; for pIC50: read-out: IC50 against IAV; for Antiviral activity against Influenza virus: screening at 50 μM, 10 μM (and 1 μM)
[2] = tested on: MERS-CoV; type: cell-based, MERS-CoV (Jordan strain); details: Huh7 cells, MOI 0.1, 24 h; read-out: IC50 against MERS-CoV
[3] = tested on: IAV; test: Time of addition assay, IAV in A549 cells, plaque assay; type: cell-based, influenza A virus
[4] = tested on: SARS-CoV; type: cell-based; details: 24 h
[5] = tested on: SARS-CoV-2 mRNA; type: cell-based; details: two gene targets (N, RdRp)
[6] = tested on: IAV NS1; type: cell-based, influenza A virus
[7] = tested on: IAV NS1 mRNA; type: cell-based, influenza A virus
[8] = tested on: IAV RNA; test: Multi-segment RT-PCR (M-RTPCR) of all IAV segments; type: cell-based, influenza A virus
[9] = tested on: SARS-CoV-2; type: cell-based
[10] = tested on: Marburg virus Angola strain (MARV); type: cell-based; details: Huh7 cells, 48 h; read-out: IC50 against MARV
[11] = tested on: Huh7 cells; details: 24 h, CellTiter-Glo
[12] = tested on: Ebola virus Makona strain (EBOV); type: cell-based; details: Huh7 cells, 48 h; read-out: IC50 against EBOV
[13] = tested on: A549 cells; details: 24 h, CellTiter-Glo
[14] = 10 μM compound, DMSO (0.1%) control 153000
[15] = 50 μM compound, DMSO (0.5%) control 58700
[16] = 1 μm compound, DMSO (0.1%) control 153000

**Q.** With `COc1ccc(CNCCCSC)c(OCC(O)CN2CCN(C)CC2)c1` (centres unmarked) [18-16] as the compound, how does the “first experiment PFU/ml” value ([1]; 10 μM screen) read?
**A.** Its value is 210000 PFU/ml.

**Q.** With `COc1ccc(CNCCc2ccccc2F)c(OCC(O)CN2CCN(C)CC2)c1` (centres unmarked) [18-lead, 1-[2-({[2-(2-fluorophenyl)ethyl]amino}methyl)-5-methoxyphenoxy]-3-(4-methyl-1-piperazinyl)-2-propanol] as the compound, how does the “first experiment PFU/ml” value ([1]; 10 μM screen) read?
**A.** The value was 2000 PFU/ml.

**Q.** And the “1-24-20 (triplicate wells) PFU/ml” value ([1]; 10 μM screen, well 1, 0.1% DMSO control 23000)?
**A.** The value was 1300 PFU/ml.

**Q.** And the “1-24-20 (triplicate wells) PFU/ml” value ([1]; 10 μM screen, well 2, 0.1% DMSO control 19000)?
**A.** Its value is 1000 PFU/ml.

**Q.** What about the “1-24-20 (triplicate wells) PFU/ml” value ([1]; 10 μM screen, well 3, 0.1% DMSO control 29000) of the same compound?
**A.** Its value is 4000 PFU/ml.

**Q.** What about the “1-24-20 (triplicate wells) PFU/ml” value ([1]; 50 μM screen, well 1, 0.5% DMSO control 21000) of the same compound?
**A.** The value was 600 PFU/ml.

**Q.** And the “1-24-20 (triplicate wells) PFU/ml” value ([1]; 50 μM screen, well 2, 0.5% DMSO control 5300)?
**A.** The value was 200 PFU/ml.

**Q.** What about the “1-24-20 (triplicate wells) PFU/ml” value ([1]; 50 μM screen, well 3, 0.5% DMSO control 15000) of the same compound?
**A.** The value was 300 PFU/ml.

**Q.** Which results are given for `COc1ccc(OC)c(Cc2nnc(CCC(=O)NC3CC(C)(C)CC(C)(C)C3)o2)c1` [compound 35434810, 3-4[5-(2,5-dimethoxybenzyl)-1,3,4-oxadiazol-2-yl]-N-(3,3,5,5-tetramethylcyclohexyl)propanamide]?
**A.** Flu titer (pfu/ml) [1, 14]: 80000 pfu/ml; Flu titer (pfu/ml) [1, 15]: 130000 pfu/ml; Flu titer (pfu/ml) [1, 16]: 80000 pfu/ml

**Q.** How did the pIC50 [2] turn out when `COc1ccc(CNCCc2ccccc2C)c(OCC(O)CN2CCN(C)CC2)c1` (centres unmarked) [UMB18-2] was run?
**A.** Its pIC50 is ~5.30.

**Q.** What about the pIC50 [1] of the same compound?
**A.** Its pIC50 is ~5.30.

**Q.** And the “Inhibition of IAV, drug added 2 h after infection (+2 h)” value [3]?
**A.** The value was “marked reduction in the level of inhibition”.

**Q.** What about the “Inhibition of SARS-CoV virus production” value ([4]; 10 μM) of the same compound?
**A.** The value was “inhibition, but to a lesser extent”.

**Q.** What about the “Reduction in SARS-CoV virus production” value ([4]; 50 μM) of the same compound?
**A.** The value was 1 log.

**Q.** And the “SARS-CoV-2 mRNA production” value [5]?
**A.** The value was “capable of inhibiting SARS-CoV-2 mRNA production”.

**Q.** And the NS1 protein [6]?
**A.** The NS1 protein was “lack of NS1 protein”.

**Q.** What about the “NS1 mRNA” value [7] of the same compound?
**A.** The value was “marked reduction in mRNA”.

**Q.** And the “IAV RNA amplified by M-RTPCR” value [8]?
**A.** The value was “total loss of IAV RNA”.

**Q.** What about the “Inhibition of SARS-CoV-2 virus production (TCID50)” value [9] of the same compound?
**A.** Its value is “capable of inhibiting virus production; also recorded: less so”.

**Q.** Which “first experiment PFU/ml” value ([1]; 10 μM screen) does the source give for `COc1ccc(CNC2CCCC2)c(OCC(O)CN2CCN(C)CC2)c1` (centres unmarked) [18-1] here?
**A.** The value was 60000 PFU/ml.

**Q.** With `COc1ccc(CNC2CCCCC2)c(OCC(O)CN2CCN(C)CC2)c1` (centres unmarked) [18-10] as the compound, how does the “first experiment PFU/ml” value ([1]; 10 μM screen) read?
**A.** The value was 40000 PFU/ml.

**Q.** How did the “Influenza virus plaque assay titer, 10 μM” value ([1]; compound at 10 μM, DMSO control 100000) turn out when `COc1ccc(CNCCCn2ccnc2)c(OCC(O)CN2CCN(C)CC2)c1` (centres unmarked) [18-15] was run?
**A.** Its value is 36000 PFU/virus/ml.

**Q.** `COc1ccc(CNCCc2ccccc2C)c(OCC(O)CN2CCN(C)CC2)c1` (centres unmarked) [18-2] was tested. Which “first experiment PFU/ml” value ([1]; 10 μM screen) did it give?
**A.** The value was 500 PFU/ml.

**Q.** And the “Antiviral activity against Influenza virus” value ([1]; listed as 27092311)?
**A.** Its value is “increased activity”.

**Q.** Which “first experiment PFU/ml” value ([1]; 10 μM screen) does the source give for `COc1ccc(CNC2Cc3ccccc3C2)c(OCC(O)CN2CCN(C)CC2)c1` (centres unmarked) [18-3] here?
**A.** The value was 12000 PFU/ml.

**Q.** Which “first experiment PFU/ml” value ([1]; 10 μM screen) does the source give for `COc1ccc(CNCC(F)(F)F)c(OCC(O)CN2CCN(C)CC2)c1` (centres unmarked) [18-12] here?
**A.** The value was 30000 PFU/ml.

**Q.** How did the “Flu titer (pfu/ml)” value [1, 14] turn out when `OCCN(Cc1nc(Cc2cccc(C(F)(F)F)c2)no1)CC12CC3CC(CC(C3)C1)C2` [compound 61121342] was run?
**A.** The value was 130000 pfu/ml.

**Q.** And the “Flu titer (pfu/ml)” value [1, 15]?
**A.** The value was 50000 pfu/ml.

**Q.** What about the “Flu titer (pfu/ml)” value [1, 16] of the same compound?
**A.** The value was 9000 pfu/ml.

**Q.** With `COc1ccc(CNCCc2ccccc2Cl)c(OCC(O)CN2CCN(C)CC2)c1` (centres unmarked) [18-4] as the compound, how does the “first experiment PFU/ml” value ([1]; 10 μM screen) read?
**A.** Its value is 7000 PFU/ml.

**Q.** `COc1ccc(CNCCCn2cccn2)c(OCC(O)CN2CCN(C)CC2)c1` (centres unmarked) [18-13] was tested. Which “first experiment PFU/ml” value ([1]; 10 μM screen) did it give?
**A.** The value was 40000 PFU/ml.

**Q.** How did the “first experiment PFU/ml” value ([1]; 10 μM screen) turn out when `COc1ccc(CNCCCn2ccnc2C)c(OCC(O)CN2CCN(C)CC2)c1` (centres unmarked) [18-7] was run?
**A.** Its value is 240000 PFU/ml.

**Q.** For `COc1ccc(CNCCc2ccccc2)c(OCC(O)CN2CCN(C)CC2)c1` (centres unmarked) [18-6], which “first experiment PFU/ml” value ([1]; 10 μM screen) is on record?
**A.** The value was 10000 PFU/ml.

**Q.** Which “first experiment PFU/ml” value ([1]; 10 μM screen) does the source give for `COc1ccc(CNCC2CCCCC2)c(OCC(O)CN2CCN(C)CC2)c1` (centres unmarked) [18-5] here?
**A.** The value was 60000 PFU/ml.

**Q.** With `COc1ccc(CNCCCSC)c(OCC(O)CN2CCCCCCC2)c1` (centres unmarked) [18-14] as the compound, how does the “first experiment PFU/ml” value ([1]; 10 μM screen) read?
**A.** The value was 44000 PFU/ml.

**Q.** How did the “first experiment PFU/ml” value ([1]; 10 μM screen) turn out when `COCCCNCc1ccc(OC)cc1OCC(O)CN1CCN(C)CC1` (centres unmarked) [18-11] was run?
**A.** Its value is 100000 PFU/ml.

**Q.** With `COc1ccc(CNCCc2ccccc2F)c(OCC(O)CN2CCN(C)CC2)c1` (centres unmarked) [UMB18] as the compound, how does the pIC50 [2] read?
**A.** Its pIC50 is ~5.30.

**Q.** And the pIC50 [10]?
**A.** The pIC50 was ~4.80.

**Q.** What about the “Antiviral activity against Influenza virus” value [1] of the same compound?
**A.** The value was “antiviral activity against influenza”.

**Q.** And the pIC50 [1]?
**A.** The pIC50 was ~5.30.

**Q.** And the “Cell cytotoxicity at antiviral concentrations” value [11]?
**A.** Its value is “minimal toxicity”.

**Q.** And the “Inhibition of IAV, drug added 2 h after infection (+2 h)” value [3]?
**A.** Its value is “marked reduction in the level of inhibition”.

**Q.** What about the pIC50 [12] of the same compound?
**A.** The pIC50 was ~5.30.

**Q.** What about the NS1 protein [6] of the same compound?
**A.** The NS1 protein was “lack of NS1 protein”.

**Q.** What about the “Cell cytotoxicity at antiviral concentrations” value [13] of the same compound?
**A.** Its value is “minimal toxicity”.

**Q.** And the “NS1 mRNA” value [7]?
**A.** The value was “marked reduction in mRNA”.

**Q.** How did the “first experiment PFU/ml” value ([1]; 10 μM screen) turn out when `COc1ccc(CNCCc2cccnc2)c(OCC(O)CN2CCCCCCC2)c1` (centres unmarked) [18-9] was run?
**A.** The value was 200000 PFU/ml.

**Q.** For `COc1ccc(CNC2CCCCCCC2)c(OCC(O)CN2CCN(C)CC2)c1` (centres unmarked) [18-8], which “first experiment PFU/ml” value ([1]; 10 μM screen) is on record?
**A.** Its value is 3000 PFU/ml.
